Molecules are shown by their SMILES. Non-standard residues stand in square brackets, D forms with d. Residues, ends and D or L forms follow the SMILES beside them. *: point of attachment. Palmitoyl = CCCCCCCCCCCCCCCC(=O)*; Lauroyl = CCCCCCCCCCCC(=O)*; Octanoyl = CCCCCCCC(=O)*

The target in this experiment is T1, bombesin receptor (Mus musculus, UniProt P21729).
T1 construct: The pancreata from one or more mice were pooled, minced, and homogenized; from tissue; host or cells: mouse pancreas
T1 sequence (P21729 whole entry): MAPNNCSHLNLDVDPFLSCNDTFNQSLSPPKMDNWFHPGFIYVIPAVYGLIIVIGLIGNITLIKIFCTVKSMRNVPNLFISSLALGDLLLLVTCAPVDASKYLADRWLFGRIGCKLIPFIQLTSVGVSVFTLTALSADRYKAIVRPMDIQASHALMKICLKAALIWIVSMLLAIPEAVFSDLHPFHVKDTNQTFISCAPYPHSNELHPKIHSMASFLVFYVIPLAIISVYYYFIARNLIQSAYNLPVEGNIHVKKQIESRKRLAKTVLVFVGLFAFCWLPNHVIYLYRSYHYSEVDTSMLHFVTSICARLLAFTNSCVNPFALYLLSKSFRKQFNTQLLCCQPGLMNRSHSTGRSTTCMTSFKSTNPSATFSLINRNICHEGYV
As to the kind of experiment: Affinity for the bombesin receptor by competition at the receptor for iodinated GRP (125I-GRP), pancreas membranes. More on the design: species or system mice. The following applies: competition with 125I-GRP, 90 minutes at room temperature, read-out: Bombesin Receptor Binding (Example 5). How it is done: The pancreata from one or more mice were pooled, minced, and homogenized in 50 mM HEPES (pH 7.4) containing 120 mM NaCl and 5 mM KCl at 4°C and centrifuged at 37,500 X g for 15 minutes. The pellet was resuspended in 50 mM HEPES (pH 7.4) containing 10 mM EDTA and 300 mM KCl and incubated for 30 minutes at 4°C. The suspension was centrifuged as above and the pellet was washed two times in 50 mM HEPES (pH 7.4) containing protease inhibitors (10 µM phenylmethylsulfonyl fluoride, 1 µM thiorphan, 40 µg/ml bacitracin, 10mM iodoacetic acid and 4 µg/ml leupeptin), and again centrifuged. The tissue was then resuspended in incubation buffer (1ml per 4 mg pancreas) and incubated for 15 minutes at room temperature, then 250 µl was added to each assay tube to commence the assay. The assay tubes contained incubation buffer consisting of 50 mM HEPES (pH 7.4), 0.5% BSA, protease inhibitors, 2 mM MnCl2, 1 µM somatostatin, and concentrations of ^125I-GRP and peptides as needed in a final volume of 500 µl. The assay was allowed to proceed to equilibrium for 90 minutes at room temperature. After this time, the contents of each tube was rapidly filtered over Whatman GF/B filters presoaked in 0.1% polyethyleneimine and the filters were rapidly washed three times with ice-cold 50 mM HEPES (pH 7.4). Filter-bound radioactivity was quantitated in a gamma counter. Competition of iodinated GRP binding by test compounds or standards was expressed as a percentage of ^125I-GRP binding in the absence of peptide. Affinity and maximal binding were calculated with Ligand (Biosoft, Cambridge, UK).
As to `CCCCCCCC(=O)N[C@@H](CCC(N)=O)C(=O)N[C@@H](Cc1c[nH]c2ccccc12)C(=O)N[C@@H](C)C(=O)N[C@H](C(=O)N[C@H](C)C(=O)N[C@@H](Cc1c[nH]cn1)C(=O)N[C@@H](CC(C)C)C(N)=O)C(C)C` [Example 1, N-(n-Octanoyl)-Gln-Trp-Ala-Val-ala-His-Leu-NH2] (Octanoyl-QWAV[dA]HL-NH2), the Kd was no more than 50 nM. As for `CCCCCCCCCCCC(=O)N[C@@H](CCC(N)=O)C(=O)N[C@@H](Cc1c[nH]c2ccccc12)C(=O)N[C@@H](C)C(=O)N[C@H](C(=O)N[C@H](C)C(=O)N[C@@H](Cc1c[nH]cn1)C(=O)N[C@@H](CC(C)C)C(N)=O)C(C)C` [Example 2, N-(Lauroyl)-Gln-Trp-Ala-Val-ala-His-Leu-NH2] (Lauroyl-QWAV[dA]HL-NH2), the Kd was no more than 500 nM. With `CCCCCCCC(=O)N[C@@H](CCC(N)=O)C(=O)N[C@@H](Cc1c[nH]c2ccccc12)C(=O)N[C@@H](C)C(=O)N[C@H](C(=O)N[C@H](C)C(=O)N[C@@H](Cc1c[nH]cn1)C(N)=O)C(C)C` [Example 4, N-(n-Octanoyl)-Gln-Trp-Ala-Val-ala-His-NH2] (Octanoyl-QWAV[dA]H-NH2) the figure was no more than 50 nM; with `CCCCCCCCCCCCCCCC(=O)N[C@@H](CCC(N)=O)C(=O)N[C@@H](Cc1c[nH]c2ccccc12)C(=O)N[C@@H](C)C(=O)N[C@H](C(=O)N[C@H](C)C(=O)N[C@@H](Cc1c[nH]cn1)C(=O)N[C@@H](CC(C)C)C(N)=O)C(C)C` [Example 3, N-(Palmitoyl)-Gln-Trp-Ala-Val-ala-His-Leu-NH2] (Palmitoyl-QWAV[dA]HL-NH2), no more than 500 nM.

Source of the values: patent publication EP0468497B1, “Peptide-antagonists of bombesin/GRP” (MERRELL PHARMACEUTICALS INC., priority 1990, dated 1992).
